Measured values published in the supplement of paper PMC10290057.
Where a name gives a salt, the structure may show the parent alone.

Tested on: HCT116
Assay: efficacy (fitted maximal change in viability relative to DMSO control); higher = less cytotoxic (negative = loss of viability)
Conditions: 48 h
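Further: Luminescence-based viability readout, five doses per compound, normalized against on-plate DMSO and empty-well controls, followed by dose-response curve fitting for every drug.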

Row | SMILES | efficacy [%]
1 | Cc1c(F)cc(C(=O)NC2CC2)cc1-c1ccc(C(=O)NCC(C)(C)C)cn1 [Losmapimod] | -18.8
2 | CCOC(=O)O[C@@]1(CC[C@H]2[C@@H]3CCC/4=C/C(=O)/C=C\[C@]4(C)[C@H]3[C@@H](O)C[C@]12C)C(=O)OCCl [Loteprednol etabonate] | -16
3 | CC[C@H](C)C(=O)O[C@H]1C[C@@H](C)\C=C2\C=C/[C@H](C)[C@H](CC[C@@H]3C[C@@H](O)CC(=O)O3)[C@@H]12 [Lovastatin] | -14.4
4 | CCCCC(F)(F)[C@@]1(O)CC[C@H]2[C@@H](CC(=O)[C@@H]2CCCCCCC(=O)O)O1 [Lubiprostone] | -6.29
5 | CCCCN(CCCC)CC(O)c1cc(Cl)cc2c1-c1ccc(Cl)cc1/C2=C/c1ccc(Cl)cc1 (stereo not given) [Lumefantrine] | -26.5
6 | C=C(C)[C@@H]1CC[C@]2(C)CC[C@]3(C)[C@H](CC[C@@H]4[C@@]5(C)CC[C@H](O)C(C)(C)[C@@H]5CC[C@]43C)[C@@H]12 [Lupeol] | -15.6
7 | CN1\C(=C([O-])/C2=CC=CC=C2[S+]1([O-])=O)C(=O)NC3=NC=C(C)S3 [MELOXICAM SODIUM] | 9
8 | C1Cc2[nH]nc(-c3nn[nH]n3)c2C1 [MK-0354] | -7.85
9 | O=C1O[C@]2(CC[C@@H](C(=O)Nc3ccn(-c4ccccc4F)n3)CC2)c2cnccc21 [MK-0557] | -11.9
10 | O=C(O)CCC1CCC(c2cc(F)ccc2F)([S+](=O)([O-])c2ccc(Cl)cc2)CC1 (stereo not given) [MK-0752] | -19
11 | COc1ccc(CC2SC(=O)NC2=O)cc1C(=O)NCc1ccc(C(F)(F)F)cc1 (stereo not given) [MK-767] | -17.2
12 | CO[C@@H]1COCC[C@@H]1N[C@@H]1CC[C@@](C(=O)N2CCc3ncc(C(F)(F)F)cc3C2)(C(C)C)C1 [MK-0812] | -11.1
13 | COc1ccc(CNC(=O)c2cc(-c3cncc(Cl)c3)cnc2-c2ccccn2)nc1OC [MK-1064] | 12.4
14 | Cn1c(-c2ccccc2C(F)(F)F)nnc1C12CCC(c3noc(C4CC(F)(F)C4)n3)(CC1)CC2 [MK-4101] | -26.2
15 | O=C(O)Cn1nnc(-c2cc(N3CCC(Oc4cc(F)ccc4Br)CC3)no2)n1 [MK-8245] | -19.9
16 | CN1CCN(C(=O)c2ccc(-c3ccc4c(C=O)c(O)ccc4c3)s2)CC1 [MKC-3946] | -13.9
17 | O=[S+]([O-])(c1cccc2c(I)cccc12)N1CCCNCC1 [ML-7] | -56.9
18 | O=C(O)c1ccccc1-c1ccc(/C=c2\sc3nc4cc(Br)cnc4n3c2=O)o1 [ML-119] | -9.89
19 | COC1=CC=C(C=C1)C2CC(=N/N2C3=CC=C(C=C3)[S+](N)([O-])=O)\C4=CC=CC=C4 (stereo not given) [ML-141] | -60
20 | [2H]C([2H])(Nc1nc(-c2ccccc2C([2H])(C([2H])([2H])[2H])C([2H])([2H])[2H])ncc1C)c1ccc(-n2ccnn2)cc1 [ML-323] | -36.2
21 | COc1ccc(-c2cnc3c(-c4cccc5ncccc45)cnn3c2)cc1 [ML-347] | 9.54
22 | COc1c(Cl)cc2c([nH]c3cnccc32)c1NC(=O)c1cccnc1C [MLN-120B] | -95.3
23 | CCCN[S+](=O)([O-])Nc1ncnc(OCCOc2ncc(Br)cn2)c1-c1ccc(Br)cc1 [Macitentan] | -63.7
24 | CC(C)OC(=O)C(C(=O)OC(C)C)=C1S\C=C/S1 [Malotilate] | -26.9
25 | COC(=O)C1=C(C)NC(C)=C(C(=O)OCCN2CCN(C(c3ccccc3)c3ccccc3)CC2)C1c1cccc([N+](=O)[O-])c1.Cl.Cl (stereo not given) [Manidipine] | -75

Row | SMILES | efficacy [%]
26 | OC[C@@H](O)[C@@H](O)[C@H](O)[C@@H](O)CO [Mannitol] | 13
27 | Cc1nnc(C(C)C)n1C1CC2CCC(C1)N2CC[C@H](NC(=O)C1CCC(F)(F)CC1)c1ccccc1 (stereo not given in full) [Maraviroc] | -6.73
28 | COC(=O)Nc1nc2cc(C(=O)c3ccccc3)ccc2[nH]1 [Mebendazole] | -65.1
29 | CCOC(=O)c1c(C)n(C)c2ccc(O)cc12 [Mecarbinate] | -21.6
30 | C[C@H]1C[C@@H]2[C@H](CC[C@@]3(C)[C@H]2CC[C@]3(OC(C)=O)C(C)=O)[C@@]\4(C)CCC(=O)\C=C14 [Medroxyprogesterone acetate] | -13.3
31 | CC(=O)O[C@@]1(CC[C@H]2[C@@H]3\C=C(C)/C4=C/C(=O)CC[C@]4(C)[C@H]3CC[C@]12C)C(C)=O [Megestrol acetate] | -13.4
32 | COc1ccc2[nH]cc(CCNC(C)=O)c2c1 [Melatonin] | -10.4
33 | N[C@@H](Cc1ccc(N(CCCl)CCCl)cc1)C(=O)O [Melphalan] | -56.5
34 | CC1=CC(=O)c2ccccc2C1=O [Menadione] | -10.7
35 | O=S(=O)([O-])CCS [Mesna] | -8.13
36 | C#C[C@]1(O)CC[C@H]2[C@@H]3CCc4cc(OC)ccc4[C@H]3CC[C@@]21C [Mestranol] | -33.5
37 | CSCC[C@@H](NC(=O)[C@@H](Cc1ccccc1)NC(=O)CNC(=O)CNC(=O)[C@@H](N)Cc1ccc(O)cc1)C(=O)O [Metenkephalin] | -81.4
38 | CN(C)C(=N)NC(=N)N [Metformin] | -21.8
39 | CN(C)[C@H]\1[C@@H]2[C@@H](O)[C@@H]\3C(=C)C4=C(C(=CC=C4)O)C(=O)C3=C(\O)[C@@]2(O)C(=O)\C(=C1O)C(N)=O [Methacycline hydrochloride] | -9.07
40 | C[C@](N)(Cc1ccc(O)c(O)c1)C(=O)O [Methyldopa] | -16.9
41 | CN(C)c1ccc2nc3ccc(N(C)C)cc3[s+]c2c1.[Cl-] [Methylene blue] | -96.6
42 | C[C@H]1C[C@H]2[C@@H]3CC[C@](O)(C(=O)CO)[C@@]3(C)C[C@H](O)[C@@H]2[C@@]\4(C)/C=C\C(=O)\C=C14 [Methylprednisolone] | 20
43 | CC#C[C@]1(O)CC[C@H]2[C@@H]/3CCC/4=C/C(=O)CCC4=C3[C@H](C[C@]12C)C5=CC=C(C=C5)N(C)C [Mifepristone] | -73.4
44 | C\C1=C(\C=C(\C#N)C(=O)N1)C2=CC=NC=C2 [Milrinone] | -8.82
45 | O=C(c1ccc(N[S+](=O)([O-])c2cccc3cccnc23)cc1)N1CCN(CC2CC2)CC1 [Mitapivat] | -18.2
46 | CO[C@@]12[C@H](COC(N)=O)C/3=C(N1C[C@@H]4N[C@H]24)/C(=O)/C(=C(N)\C3=O)C [Mitomycin C] | -11.2
47 | Clc1ccc(C(c2ccccc2Cl)C(Cl)Cl)cc1 (stereo not given) [Mitotane] | -92.3
48 | NC(=O)c1ncn([C@@H]2O[C@H](CO)[C@@H](O)[C@H]2O)c1O [Mizoribine] | 18
49 | O=C\1N(N\C=C1[N]2C=CN=N2)C3=NC=NC(=C3)N4CCOCC4 [Molidustat] | -58.6
50 | CCOC(=O)C/1=C(C)/NC(=S)NC1C2=CC=CC(=C2)O (stereo not given) [Monastrol] | -52.1

Row | SMILES | efficacy [%]
51 | CCOc1cc(N)c(Cl)cc1C(=O)NCC1CN(Cc2ccc(F)cc2)CCO1 (stereo not given) [Mosapride citrate] | -28.4
52 | CC1(C)CNc2cc(NC(=O)c3cccnc3NCc3ccncc3)ccc21 [Motesanib] | 10.7
53 | COc1c(N2C[C@@H]3CCCN[C@@H]3C2)c(F)cc2c(=O)c(C(=O)O)cn(C3CC3)c12.Cl.O [Moxifloxacin hydrochloride] | -9.48
54 | OC1=CC2=C(C(=C1)O)C(=O)\C(=C(/O2)C3=CC(=C(O)C(=C3)O)O)O [Myricetin] | -26.3
55 | COc1ccc(C(=O)N2CCN(C(=O)/C=C/c3ccc(Br)cc3)CC2)cc1 [NIBR-189] | -15.1
56 | NC(=O)c1cc(F)cc2c1C(=O)N(C1CCN(C3CCC(F)(F)CC3)CC1)C2 [NMS-P118] | -18.7
57 | Oc1nc(-c2ccc(C(F)(F)F)cc2)nc2c1CSCC2 [NVP-XAV-939] | -13.5
58 | CC(C)NC(=O)N1CC[C@@H](C1)NC/2=N/C3=C(C=CC(=C3)F)N(CC(F)F)C4=C2C=C(Cl)C=C4 [NVS-PAK1-1] | -21.2
59 | N=C(N)Nc1ccc(C(=O)Oc2ccc3cc(C(=N)N)ccc3c2)cc1 [Nafamostat mesilate] | -24.8
60 | CC(C)(C)C(=O)CN1C(=O)[C@H](NC(=O)Nc2cccc(C(=O)O)c2)CN(C2CCCCC2)c2ccccc21 [Nastorazepide] | -4.67
61 | CC(C)C1CCC(C(=O)N[C@H](Cc2ccccc2)C(=O)O)CC1 (stereo not given in full) [Nateglinide] | -11
62 | CN1C(=O)N[C@H](Cc2c[nH]c3c(Cl)cccc23)C1=O [Necrostatin 2] | 15
63 | CN1C(=O)C(Cc2c[nH]c3ccccc23)NC1=S (stereo not given) [Necrostatin-1] | -7.49
64 | Cc1cccc(C)c1NC(=O)CN1CCCC1=O [Nefiracetam] | -20.6
65 | NCC/1=C/NC(=S)N1[C@H]2CCC3=C(F)C=C(F)C=C3C2 [Nepicastat hydrochloride] | -46.6
66 | CNC(=O)c1c(-c2ccc(F)cc2)oc2cc(N(CCO)[S+](C)(=O)[O-])c(C3CC3)cc12 [Nesbuvir] | -8.31
67 | CN1C(=O)/C=C(/NCCN(CCO)CCCC2=CC=C(C=C2)[N+]([O-])=O)N(C)C1=O [Nifekalant] | -10
68 | CC1(C)NC(=O)N(c2ccc([N+](=O)[O-])c(C(F)(F)F)c2)C1=O [Nilutamide] | -35.5
69 | C[S+](=O)([O-])Nc1ccc([N+](=O)[O-])cc1Oc1ccccc1 [Nimesulide] | -15.6
70 | O=[N+]([O-])c1cncn1CCN1CCOCC1 [Nimorazole] | -10.3
71 | NC[C@H](O)c1ccc(O)c(O)c1 [Noradrenaline bitartrate monohydrate] | 10.7
72 | CCN1\C=C(\C(O)=O)C(=O)C2=C1C=C(N3CCNCC3)C(=C2)F [Norfloxacin] | 9.53
73 | CO[C@@H]1[C@@H](OC(N)=O)[C@@H](O)[C@H](OC2=CC=C3\C(=C(NC(=O)C4=CC=C([O-])C(=C4)CC=C(C)C)/C(=O)OC3=C2C)O)OC1(C)C [Novobiocin sodium] | 3.79
74 | Nc1nc(OCc2ccccc2)c2nc[nH]c2n1 [O6-Benzylguanine] | -34.3
75 | CN1CCN(CC1)C2=C(NC(=O)C/3=C/NC(=O)/C=C3C(F)(F)F)C=C(C=C2)C4=CC(=CC=C4)CN5CCOCC5 [OICR-9429] | -23.2
